According to US11524956B2, “Alkyne substituted quinazoline compound and methods of use” (Newgen Therapeutics, Inc., priority 2011, dated 2022):
Where two headings read alike, the source gives them in different places.

What was measured:
Rat brain concentration = type: in vivo, Sprague Dawley rats; settings: Sprague Dawley, po, P.O. 5 mg/Kg; for concentration at 2 h / concentration at 4 h / concentration at 24 h: brain, 5 mg/kg
Method: Brain concentration: Three rats are for brain collection (2h) only. Three rats are for brain collection (4 h) only. The rest 3 rats are for plasma (9 time points) and brain collection (24h).
Brain Collection and Tissue Processing: Post blood collection, the brain was first perfused intracardially with ˜150 mL of ice-cold, 0.1 M Phosphate Buffered Saline (PBS) at pH7.4. Then, the dura was removed before weighing the brain. The brain was then dissected into smaller pieces, rinsed twice with ˜10 mL PBS, and then flash frozen on dry ice, and stored at −80° C. before analysis.
Before tissue processing, rat brains were thawed. For the preparation of analytical standards, purchased frozen rat brains (from Pelfreez) were similarly thawed, dissected, rinsed with PBS, and 100 μL of Compound A stock solution (at 500 ng/mL and 1, 2 5, 10, and 50 μg/mL in acetonitrile) was spiked directly into the tissue. Both Compound A dosed and spiked brains then underwent the same processing procedures described below.
Briefly, 2 mL of water was added to each brain before homogenization. Homogenize the brain in 2 to 3 sessions, each approximately 15 sec. The mechanical probe of the homogenizer was cleansed in water, 70% ethanol, and ethyl acetate after each sample. The resulting brain homogenates were then extracted with ethyl acetate three times (14 mL total), and centrifuged to separate the aqueous and organic phases after each extraction. Per brain, pooled organic phase were evaporated under a stream of nitrogen at 40° C. and the residues were reconstituted with 4 mL of mobile phase B. Compound A spiked brain samples in the 4 mL solutions had final concentrations of 12.5, 25, 50, 125, 250, 1250 ng/mL. The reconstituted samples were incubated for ˜15 minutes at 60° C. and, vortexed for 10 minutes to fully dissolve the analytes. The samples were centrifuged, and then further diluted with Mobile phase B (shown below) before LC/MS/MS analysis. Dilute 20 μL of reconstituted samples with 1.5 mL mobile phase B. Transfer and inject supernatant to […] system for analysis.

H1975 xenograft = test: In vivo efficacy in NCI-H1975 xenograft mouse model; parameters: species or system Balb/c nude mice; settings: KU113 10 and 20 mg/kg po qd; afatinib 20 mg/kg; erlotinib 100 mg/kg
Method: H1975 cells were purchased from ATCC were cultured in RPMI1640±10% FBS-1% P/S antibiotics. Balb/c nude mice, female, 6-8 week, 18+2 g were purchased from. Shanghai Laboratory Animal Co. Ltd. The purchased mice were adapted to the environment for 7 days before use, and were housed at 22-25° C. with humidity 40-70%, and light cycle with fluorescent light for 12-hour light (8:00-20:00) 12-hour dark.
Formulation: Erlotinib, afatinib (BIBW2992), and KU113 were dissolved in 2% DMA and 98% (40% HP-β-CD deionized water).
The cancer cells (H1975) were amplified and implanted into the nude mice (right flank) with 5.0×10^6 cells in PBS and 1:1 with matrigel in a total volume of 0.1 ml/mouse. […]
The mice were monitored twice daily for appearance and behavior, and for signs of morbidity and/or mortality. The tumor volume was measured twice a week, and the body weight was measured immediately before measuring the tumor volume throughout the whole study. […]
Tumor sizes were measured twice weekly in two dimensions using a caliper, and the volume was expressed in mm^3 using the formula: V=½×a×b^2 where a and b are the long and short diameters of the tumor, respectively. […]

`CN(C)C/C=C/C(=O)Nc1cc2c(Nc3ccc(F)c(Cl)c3)ncnc2cc1C#C[C@@H]1[C@H]2COC[C@@H]12` [Example 4, (E)-N-(4-(3-chloro-4-fluorophenylamino)-7-(2-((1R,5S,6s)-3-oxa-bicyclo[3.1.0]hexan-6-yl)ethynyl)quinazolin-6-yl)-4-(dimethylamino)but-2-enamide] gave a concentration at 2 h (Rat brain concentration; 2 hr, read-out: Brain Conc. (ng/g) Mean) of 156 ng/g, a concentration at 2 h (Rat brain concentration; 2 hr, read-out: Brain Conc. (ng/g) No. 1) of 118 ng/g and a concentration at 2 h (Rat brain concentration; 2 hr, read-out: Brain Conc. (ng/g) No. 2) of 156 ng/g. For the same molecule, the concentration at 2 h (Rat brain concentration; 2 hr, read-out: Brain Conc. (ng/g) No. 3) was 194 ng/g, the concentration at 4 h (Rat brain concentration; 4 hr, read-out: Brain Conc. (ng/g) Mean) was 173 ng/g and the concentration at 4 h (Rat brain concentration; 4 hr, read-out: Brain Conc. (ng/g) No. 1) was 127 ng/g. For the same molecule, the concentration at 4 h (Rat brain concentration; 4 hr, read-out: Brain Conc. (ng/g) No. 2) was 209 ng/g, the concentration at 4 h (Rat brain concentration; 4 hr, read-out: Brain Conc. (ng/g) No. 3) was 185 ng/g and the concentration at 24 h (Rat brain concentration; 24 hr, read-out: Brain Conc. (ng/g) Mean) was 17.6 ng/g. For the same molecule, the concentration at 24 h (Rat brain concentration; 24 hr, read-out: Brain Conc. (ng/g) No. 1) was 26 ng/g, the concentration at 24 h (Rat brain concentration; 24 hr, read-out: Brain Conc. (ng/g) No. 2) was 11 ng/g and the concentration at 24 h (Rat brain concentration; 24 hr, read-out: Brain Conc. (ng/g) No. 3) was 15.8 ng/g. The Kp at 2 h (Rat brain concentration; brain/plasma, 2 hr, read-out: B/P ratio) was 4, the Kp at 4 h (Rat brain concentration; brain/plasma, 4 hr, read-out: B/P ratio) was 4.4 and the Kp at 24 h (Rat brain concentration; brain/plasma, 24 hr, read-out: B/P ratio) was 8.7. The “anticancer effect on H1975 xenograft versus comparators” value (H1975 xenograft) was “significantly more effective than erlotinib; and comparable with afatinib”.
